Format in all cases: cell-based
Experiment [1] addresses protein kinases (human kinome) (Homo sapiens, UniProt Q16760). Particulars: protein DGKD (Q16760-1); experiment wp045; down.
Experiment [2] has as its target T1, protein kinases (human kinome) (Homo sapiens, UniProt O43318).
T1 sequence (O43318 1-606): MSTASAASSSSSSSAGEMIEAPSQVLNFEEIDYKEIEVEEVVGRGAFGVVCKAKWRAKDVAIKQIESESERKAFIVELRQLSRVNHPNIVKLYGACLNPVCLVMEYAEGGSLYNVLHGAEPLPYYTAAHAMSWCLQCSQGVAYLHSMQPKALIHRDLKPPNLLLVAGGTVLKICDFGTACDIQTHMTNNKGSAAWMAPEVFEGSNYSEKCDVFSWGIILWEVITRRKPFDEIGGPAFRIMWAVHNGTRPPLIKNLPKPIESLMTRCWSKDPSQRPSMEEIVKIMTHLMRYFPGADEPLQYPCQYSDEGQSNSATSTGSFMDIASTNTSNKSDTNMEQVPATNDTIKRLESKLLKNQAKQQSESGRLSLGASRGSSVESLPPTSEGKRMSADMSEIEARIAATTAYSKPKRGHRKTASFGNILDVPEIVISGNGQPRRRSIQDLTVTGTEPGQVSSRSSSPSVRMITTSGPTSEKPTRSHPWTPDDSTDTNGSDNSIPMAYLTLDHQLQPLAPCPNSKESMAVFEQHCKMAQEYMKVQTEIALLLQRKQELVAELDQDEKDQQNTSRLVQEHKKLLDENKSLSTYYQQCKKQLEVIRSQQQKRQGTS
Particulars: MAP3K7 (O43318).

The target in experiment [3] is T2, protein kinases (human kinome) (Homo sapiens, UniProt P51955).
T2 sequence (P51955 1-445): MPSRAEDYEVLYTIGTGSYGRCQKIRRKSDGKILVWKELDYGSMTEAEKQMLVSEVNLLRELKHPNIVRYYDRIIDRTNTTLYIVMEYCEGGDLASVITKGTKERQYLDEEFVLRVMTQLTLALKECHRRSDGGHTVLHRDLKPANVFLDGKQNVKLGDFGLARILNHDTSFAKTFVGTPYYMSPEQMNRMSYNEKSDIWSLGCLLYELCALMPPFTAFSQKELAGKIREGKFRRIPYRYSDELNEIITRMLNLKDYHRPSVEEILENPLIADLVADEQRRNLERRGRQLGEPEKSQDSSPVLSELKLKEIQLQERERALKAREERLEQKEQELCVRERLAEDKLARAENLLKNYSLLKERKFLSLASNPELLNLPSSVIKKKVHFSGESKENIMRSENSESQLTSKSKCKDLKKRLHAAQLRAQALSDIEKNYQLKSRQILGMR
Particulars: NEK2 (P51955).

The target in experiment [4] is protein kinases (human kinome) (Homo sapiens, UniProt Q9P1W9). Particulars: experiment wp076; for logFC: PIM2 (Q9P1W9).
Experiment [5] deals with protein kinases (human kinome) (Homo sapiens, UniProt O75676). Particulars: for logFC: RPS6KA4 (O75676).
[6] abbreviates: experiment wp103, direction down.
Where [7] appears, read: experiment wp105, direction down.
Setting [8] is: experiment wp107, direction down.

Like-named read-outs stand apart in the source and are kept apart here.

Chain of protein kinases (human kinome) (Homo sapiens, UniProt O75676) (O75676 whole entry): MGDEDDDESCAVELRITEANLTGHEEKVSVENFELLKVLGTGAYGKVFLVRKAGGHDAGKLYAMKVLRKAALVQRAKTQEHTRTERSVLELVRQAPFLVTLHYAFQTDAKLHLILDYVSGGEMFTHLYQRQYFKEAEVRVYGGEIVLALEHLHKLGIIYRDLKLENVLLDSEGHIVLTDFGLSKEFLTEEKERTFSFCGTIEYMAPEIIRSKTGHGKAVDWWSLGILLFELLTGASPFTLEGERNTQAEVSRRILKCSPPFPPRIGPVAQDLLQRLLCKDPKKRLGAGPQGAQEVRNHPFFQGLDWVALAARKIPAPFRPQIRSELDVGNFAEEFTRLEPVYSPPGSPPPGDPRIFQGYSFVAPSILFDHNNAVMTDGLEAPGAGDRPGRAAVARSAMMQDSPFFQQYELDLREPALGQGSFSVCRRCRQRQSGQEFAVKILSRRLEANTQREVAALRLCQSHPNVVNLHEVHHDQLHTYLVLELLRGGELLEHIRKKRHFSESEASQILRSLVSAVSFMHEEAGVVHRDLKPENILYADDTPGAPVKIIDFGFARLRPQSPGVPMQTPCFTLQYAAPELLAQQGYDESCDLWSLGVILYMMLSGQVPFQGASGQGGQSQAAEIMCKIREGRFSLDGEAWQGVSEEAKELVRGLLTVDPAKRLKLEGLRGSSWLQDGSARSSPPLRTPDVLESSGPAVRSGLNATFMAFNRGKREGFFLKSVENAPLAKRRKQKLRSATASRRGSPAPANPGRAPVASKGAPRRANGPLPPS
Chain of protein kinases (human kinome) (Homo sapiens, UniProt Q9P1W9) (Q9P1W9 whole entry): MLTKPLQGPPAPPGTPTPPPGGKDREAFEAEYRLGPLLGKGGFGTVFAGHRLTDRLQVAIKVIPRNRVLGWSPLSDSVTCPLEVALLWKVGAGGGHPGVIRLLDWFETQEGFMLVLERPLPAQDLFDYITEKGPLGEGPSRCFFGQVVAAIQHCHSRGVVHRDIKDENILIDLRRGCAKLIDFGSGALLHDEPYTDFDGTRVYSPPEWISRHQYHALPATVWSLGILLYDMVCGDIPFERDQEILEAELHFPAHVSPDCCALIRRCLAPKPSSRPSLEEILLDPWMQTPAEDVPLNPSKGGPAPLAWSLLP
Chain of protein kinases (human kinome) (Homo sapiens, UniProt Q16760) (Q16760 whole entry): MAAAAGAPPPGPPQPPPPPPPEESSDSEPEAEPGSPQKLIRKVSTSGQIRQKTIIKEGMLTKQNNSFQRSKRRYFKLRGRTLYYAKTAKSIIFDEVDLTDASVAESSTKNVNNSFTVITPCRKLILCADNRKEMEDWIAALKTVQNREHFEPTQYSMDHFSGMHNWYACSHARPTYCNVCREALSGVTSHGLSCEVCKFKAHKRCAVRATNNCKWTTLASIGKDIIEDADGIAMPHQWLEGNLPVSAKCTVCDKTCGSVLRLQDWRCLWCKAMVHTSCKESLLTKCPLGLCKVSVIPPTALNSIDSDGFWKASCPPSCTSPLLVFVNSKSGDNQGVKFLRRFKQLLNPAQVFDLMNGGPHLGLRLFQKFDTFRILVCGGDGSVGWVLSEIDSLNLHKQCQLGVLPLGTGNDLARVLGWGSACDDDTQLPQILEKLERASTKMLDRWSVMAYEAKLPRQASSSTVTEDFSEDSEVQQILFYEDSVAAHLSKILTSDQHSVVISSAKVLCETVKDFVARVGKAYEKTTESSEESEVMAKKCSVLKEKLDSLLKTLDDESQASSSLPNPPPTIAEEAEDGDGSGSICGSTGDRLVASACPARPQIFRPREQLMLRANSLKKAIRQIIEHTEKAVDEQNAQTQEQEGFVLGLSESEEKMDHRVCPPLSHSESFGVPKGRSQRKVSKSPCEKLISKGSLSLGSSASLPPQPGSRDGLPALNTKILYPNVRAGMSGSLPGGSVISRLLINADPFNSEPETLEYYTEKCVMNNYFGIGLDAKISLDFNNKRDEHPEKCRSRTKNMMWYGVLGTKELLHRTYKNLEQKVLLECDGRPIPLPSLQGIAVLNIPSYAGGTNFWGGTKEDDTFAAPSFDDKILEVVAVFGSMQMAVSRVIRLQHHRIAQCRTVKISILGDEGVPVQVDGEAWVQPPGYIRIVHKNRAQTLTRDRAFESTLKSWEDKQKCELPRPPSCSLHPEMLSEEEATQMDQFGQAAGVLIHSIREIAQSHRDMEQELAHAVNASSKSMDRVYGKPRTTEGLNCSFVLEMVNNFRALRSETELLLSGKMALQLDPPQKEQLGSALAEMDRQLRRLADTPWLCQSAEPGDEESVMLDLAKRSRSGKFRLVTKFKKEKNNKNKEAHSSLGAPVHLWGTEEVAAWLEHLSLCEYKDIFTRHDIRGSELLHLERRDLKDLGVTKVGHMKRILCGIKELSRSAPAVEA

For `Cc1ccc(NC(=O)c2cccc(C(F)(F)F)c2)cc1N1Cc2cnc(Nc3ccc(N4CCN(CCCCCCOc5cccc6c5C(=O)N(C5CCC(=O)NC5=O)C6=O)CC4)nc3)nc2N(C)C1=O` (stereo not shown) [DB0663], the “logFC DGKD” value in experiment [1] was −0.5955.
In the case of `Cc1ccc(C(=O)Nc2ccc(CN3CCN(CCCOCCOCCOCCNC(=O)COc4cccc5c4C(=O)N(C4CCC(=O)NC4=O)C5=O)CC3)c(C(F)(F)F)c2)cc1C#Cc1cnc2cccnn12` (stereo not shown) [SB1.G.187], the logFC was −1.003 in experiment [2] (experiment wp056); −1.003 in experiment [2] (experiment wp056, direction down); −1.374 in experiment [2] (experiment wp103); −1.374 in experiment [2] (setting [6]); −1.031 in experiment [2] (experiment wp105); −1.031 in experiment [2] (setting [7]). In addition, the logFC was −1.33 in experiment [2] (experiment wp107); −1.33 in experiment [2] (setting [8]); −0.5772 in experiment [2] (experiment wp172); −0.5772 in experiment [2] (experiment wp172, direction down).
For the compound `CC(C)S(=O)(=O)c1ccccc1Nc1nc(Nc2ccc(N3CCN(CCOCCOCCNC(=O)CNc4cccc5c4C(=O)N(C4CCC(=O)NC4=O)C5=O)CC3)cc2)ncc1Cl` (stereo not shown) [TL12.186], the logFC in experiment [3] (experiment wp131) is −0.3783; in experiment [3] (experiment wp131, direction down) it was −0.3783.
As to `O=C1CCC(N2C(=O)c3cccc(NCCCCCCCCN4CCC(NC(=O)c5[nH]ncc5NC(=O)c5c(Cl)cccc5Cl)CC4)c3C2=O)C(=O)N1` (stereo not shown) [MFH.5.126.1], in experiment [4], the logFC was −3.019 and the “logFC of PIM2 (Q9P1W9)” value is −3.019.
For the compound `Cc1ncsc1-c1ccc([C@H](C)NC(=O)[C@@H]2C[C@@H](O)CN2C(=O)[C@@H](NC(=O)CCOCCOCCN2CCN(c3ccc(Nc4ncc(Cl)c(Nc5ccccc5S(=O)(=O)C(C)C)n4)cc3)CC2)C(C)(C)C)cc1` [FMF.06.098.1], the “logFC of RPSGKA4 (O75676)” value in experiment [5] (Experiment wp108) is on record as −0.4196. This compound also gave a logFC in experiment [5] (experiment wp108) of −0.4196. For the same compound, in experiment [5] (experiment wp131), the logFC is reported as −0.5351 and the “logFC of RPS6KA4 (O75676)” value is listed as −0.5351.
Take `Cc1cc(Nc2ncc(Br)c(Nc3cccc(F)c3C(N)=O)n2)ccc1S(=O)(=O)NCCOCCOCCOCCOCCNc1cccc2c1C(=O)N(C1CCC(=O)NC1=O)C2=O` (stereo not shown) [TMX.02.174]: in experiment [5] (experiment wp146), the logFC is recorded as −1.5 and the “logFC of RPS6KA4 (O75676)” value is −1.5.
In the case of `CC(C)S(=O)(=O)c1ccccc1Nc1nc(Nc2ccc(N3CCN(CCOCCNC(=O)CNc4cccc5c4C(=O)N(C4CCC(=O)NC4=O)C5=O)CC3)cc2)ncc1Cl` (stereo not shown) [SK.3.91], the logFC in experiment [3] (experiment wp103) is given as −0.4564; in experiment [3] (setting [6]) it was −0.4564; in experiment [3] (experiment wp105), −0.3908; in experiment [3] (setting [7]), −0.3908; in experiment [3] (experiment wp107) it was −0.6368; in experiment [3] (setting [8]), −0.6368. Besides, the logFC in experiment [3] (experiment wp133, 1 hr) is −0.4397; in experiment [3] (experiment wp133, 1 hr, direction down), −0.4397; in experiment [3] (experiment wp133, 2 hr), −0.4411; in experiment [3] (experiment wp133, 2 hr, direction down), −0.4411; in experiment [3] (experiment wp133, 4 hr), −0.7303; in experiment [3] (experiment wp133, 4 hr, direction down), −0.7303. Besides, the logFC is −0.4294 in experiment [3] (experiment wp160, 4 hr) and −0.4294 in experiment [3] (experiment wp160, 4 hr, direction down).
In the case of `CCc1cnn2c(N(Cc3ccc(N)nc3)C(=O)CCOCCOCCOCCNC(=O)CNc3cccc4c3C(=O)N(C3CCC(=O)NC3=O)C4=O)cc(N3CCCC[C@H]3CCO)nc12` (stereo partly shown) [MFH.5.115.2], in experiment [4], the logFC is −1.679 and the “logFC of PIM2 (Q9P1W9)” value is listed as −1.679.
